Target: T1, Nav1.7 (or SCN9A) channel (Homo sapiens, UniProt Q15858)
T1 construct: expressed in transfected cells
Assay: Nav1.7 (hSCN9A) channel block, PatchXpress whole-cell electrophysiology
Assay type: cell-based
Conditions: PatchXpress platform; HEK cells stably transfected with hSCN9A; estimated IC-50 calculated from single point % inhibition at V1/2; read-out: Nav1.7 EIC50
Experimental: The ability of the compounds of formula (I) to block the Nav1.7 (or SCN9A) channel were measured using the assay described below.
Human Embryonic Kidney (HEK) cells were transfected with an hSCN9A construct using lipofectamine reagent (Invitrogen), using standard techniques. Cells stably expressing the hSCN9A constructs were identified by their resistance to G-418 (400 μg/ml). Clones were screened for expression using the whole-cell voltage-clamp technique.
HEK cells stably transfected with hSCN9A were maintained in DMEM medium supplemented with 10% heat-inactivated fetal bovine serum and 400 μg/ml G-418 in an incubator at 37° C. with a humidified atmosphere of 10% CO2. For HTS, cells were harvested from flasks by trypsinization and replated in an appropriate multi-well plate (typically 96 or 384 wells/plate) such that confluence would be achieved within 24 hours of plating. For electrophysiological studies, cells were removed from the culture flask by brief trypsinization and re-plated at low density onto glass cover slips. Cells were typically used for electrophysiological experiments within 24 to 72 hours after plating.
Cover slips containing HEK cells expressing hSCN9A were placed in a bath on the stage of an inverted microscope and perfused (approximately 1 ml/minutes) with extracellular solution of the following composition: 138 mM NaCl, 2 mM CaCl2, 5.4 mM KCl, 1 mM MgCl2, 10 mM glucose, and 10 mM HEPES, pH 7.4, with NaOH. […] The osmolarity of the extracellular and intracellular solutions was 300 mOsm/kg and 295 mOsm/kg, respectively. All recordings were made at room temperature (22-24° C.) using AXOPATCH 200B amplifiers and PCLAMP software (Axon Instruments, Burlingame, Calif.).
hSCN9A currents in HEK cells were measured using the whole-cell configuration of the patch-clamp technique (Hamill et al., 1981). Uncompensated series resistance was typically 2 to 5 mega ohms and >85% series resistance compensation was routinely achieved. As a result, voltage errors were negligible and no correction was applied. Current records were acquired at 20 to 50 KHz and filtered at 5 to 10 KHz.
HEK cells stably transfected with hSCN9A were viewed under Hoffman contrast optics and placed in front of an array of flow pipes emitting either control or compound-containing extracellular solutions. All compounds were dissolved in dimethyl sulfoxide to make 10 mM stock solutions, which were then diluted into extracellular solution to attain the final concentrations desired. […] The voltage-dependence of inactivation was determined by applying a series of depolarizing prepulses (8 sec long in 10 mV increments) from a negative holding potential. The voltage was then immediately stepped to 0 mV to assess the magnitude of the sodium current. Currents elicited at 0 mV were plotted as a function of prepulse potential to allow estimation of the voltage at which 50% of the channels were inactivated (midpoint of inactivation or V1/2). Compounds were tested for their ability to inhibit hSCN9A sodium channels by activating the channel with a 20 msec voltage step to 0 mV following an 8 second conditioning prepulse to the empirically determined V1/2. Compound effect (% inhibition) was determined by difference in current amplitude before and after application of test compounds. […] Inhibition values <20% and >80% were excluded from the calculation.
Electrophysiological assays were conducted with PatchXpress 7000 hardware and associated software (Molecular Devices Corp). All assay buffers and solutions were identical to those used in conventional whole-cell voltage clamp experiments described above. hSCN9A cells were grown as above to 50%-80% confluency and harvested by trypsinization. Trypsinized cells were washed and resuspended in extracellular buffer at a concentration of 1×10^6 cells/ml. The onboard liquid handling facility of the PatchXpress was used for dispensing cells and application of test compounds. […]

T1 sequence (Q15858 whole entry): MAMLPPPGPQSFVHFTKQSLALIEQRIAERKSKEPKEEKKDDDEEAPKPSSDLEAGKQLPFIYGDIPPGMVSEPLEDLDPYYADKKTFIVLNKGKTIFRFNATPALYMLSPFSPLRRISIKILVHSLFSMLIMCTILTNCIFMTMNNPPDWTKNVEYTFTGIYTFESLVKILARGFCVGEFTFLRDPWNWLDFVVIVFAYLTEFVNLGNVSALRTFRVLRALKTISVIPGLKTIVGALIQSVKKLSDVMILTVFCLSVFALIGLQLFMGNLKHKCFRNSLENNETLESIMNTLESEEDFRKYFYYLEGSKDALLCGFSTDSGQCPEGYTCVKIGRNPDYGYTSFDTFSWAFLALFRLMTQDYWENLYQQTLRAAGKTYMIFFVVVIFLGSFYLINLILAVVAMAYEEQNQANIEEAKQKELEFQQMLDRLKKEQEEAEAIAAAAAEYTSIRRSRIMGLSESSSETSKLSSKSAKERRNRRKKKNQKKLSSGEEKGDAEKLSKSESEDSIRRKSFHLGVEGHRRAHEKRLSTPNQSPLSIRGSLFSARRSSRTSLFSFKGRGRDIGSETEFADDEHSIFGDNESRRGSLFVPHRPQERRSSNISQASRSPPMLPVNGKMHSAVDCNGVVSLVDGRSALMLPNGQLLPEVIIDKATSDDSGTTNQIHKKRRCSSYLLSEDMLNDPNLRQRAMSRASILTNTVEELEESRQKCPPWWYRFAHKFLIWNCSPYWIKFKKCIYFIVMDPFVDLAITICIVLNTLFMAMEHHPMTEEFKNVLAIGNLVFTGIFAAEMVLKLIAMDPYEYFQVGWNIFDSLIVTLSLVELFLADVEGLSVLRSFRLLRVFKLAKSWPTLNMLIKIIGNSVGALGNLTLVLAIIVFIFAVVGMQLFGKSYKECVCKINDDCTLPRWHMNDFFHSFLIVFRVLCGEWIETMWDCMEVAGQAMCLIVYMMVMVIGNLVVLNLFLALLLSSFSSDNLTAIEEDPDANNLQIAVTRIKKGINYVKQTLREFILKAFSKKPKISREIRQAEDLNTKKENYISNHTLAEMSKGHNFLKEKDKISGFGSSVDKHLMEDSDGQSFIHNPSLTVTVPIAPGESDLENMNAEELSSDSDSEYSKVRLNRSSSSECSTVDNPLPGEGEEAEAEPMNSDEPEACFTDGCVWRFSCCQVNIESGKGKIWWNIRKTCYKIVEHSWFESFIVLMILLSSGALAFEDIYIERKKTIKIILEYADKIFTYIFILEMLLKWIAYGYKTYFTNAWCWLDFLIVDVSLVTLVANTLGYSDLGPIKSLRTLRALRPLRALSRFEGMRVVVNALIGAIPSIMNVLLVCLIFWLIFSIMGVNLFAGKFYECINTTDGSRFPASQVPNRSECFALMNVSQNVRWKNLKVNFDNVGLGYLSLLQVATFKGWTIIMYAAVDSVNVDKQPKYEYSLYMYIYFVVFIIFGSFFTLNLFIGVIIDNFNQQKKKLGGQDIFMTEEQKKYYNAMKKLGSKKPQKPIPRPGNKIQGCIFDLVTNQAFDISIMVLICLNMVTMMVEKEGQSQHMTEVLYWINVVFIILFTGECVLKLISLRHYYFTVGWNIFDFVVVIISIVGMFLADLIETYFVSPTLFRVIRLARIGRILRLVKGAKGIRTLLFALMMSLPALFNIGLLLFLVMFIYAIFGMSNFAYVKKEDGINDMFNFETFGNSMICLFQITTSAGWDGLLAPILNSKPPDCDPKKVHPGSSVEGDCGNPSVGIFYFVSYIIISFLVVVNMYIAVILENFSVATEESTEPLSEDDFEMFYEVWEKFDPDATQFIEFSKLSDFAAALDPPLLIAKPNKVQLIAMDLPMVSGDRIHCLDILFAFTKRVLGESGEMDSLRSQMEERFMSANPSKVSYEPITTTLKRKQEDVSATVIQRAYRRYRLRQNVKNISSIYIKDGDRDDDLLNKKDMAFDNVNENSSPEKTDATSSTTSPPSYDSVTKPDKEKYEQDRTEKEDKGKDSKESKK

IC50: 0.042 µM
SMILES: CC(Oc1ncc(OCc2cc(F)c(C(=O)NS(C)(=O)=O)cc2F)cc1Cl)C(F)(F)F (stereo not shown) [Example 27, 4-((5-Chloro-6-(1,1,1-trifluoropropan-2-yloxy)pyridin-3-yloxy)methyl)-2,5-difluoro-N-(methylsulfonyl)benzamide]

Reference: patent publication US9102621B2, “Acyl sulfonamide compounds” (Pfizer Limited, priority 2010, dated 2015)
